{
  "source": "paper PMC10890666",
  "about": "“Targeted Affinity Purification and Mechanism of Action of Angiotensin-Converting Enzyme (ACE) Inhibitory Peptides from Sea Cucumber Gonads” (Marine Drugs, 2024)",
  "key": {"[1]": {"biological_target": "angiotensin-converting enzyme (ACE)", "conditions": "cited from earlier work; for IC50: read-out: IC50 (ACE inhibition)", "excerpt": "The immobilization of ACE using various immobilization media is a promising affinity purification method to obtain shorter peptides from diverse sources. […] Feng et al. used a novel affinity medium Fe3O4@ZIF-90 and combined this method with reversed-phase high-performance liquid chromatography (RP-HPLC) and MALDI-TOF mass spectrometry to purify ... || Collectively, low-molecular-weight fractions isolated from SCGHs using the ultrafiltration method allowed us to obtain small peptides with potent ACE inhibitory activity. ACE inhibitory molecules are typically characterized by their small and short-chain peptide structures. In this study, a combination of ultrafiltration separation and SCGH effectively eliminated substances above 3 kDa. We further isolated the active components by utilizing an ACE enzyme affinity column, which facilitated the removal of other nonspecifically bound substances and yielded the target peptides. […] For instance, the experimentally purified short peptide DDQYHIF features Phe at the C-terminus, while HDWWKER has basic amino acids Arg and His at the C- and N-termini, respectively. Sun et al. reported that peptides with Arg at the C-termi ..."}, "[2]": {"biological_target": "T1, angiotensin-I-converting enzyme (ACE) (UniProt P12822 34-1260)", "T1 sequence (looked up)": "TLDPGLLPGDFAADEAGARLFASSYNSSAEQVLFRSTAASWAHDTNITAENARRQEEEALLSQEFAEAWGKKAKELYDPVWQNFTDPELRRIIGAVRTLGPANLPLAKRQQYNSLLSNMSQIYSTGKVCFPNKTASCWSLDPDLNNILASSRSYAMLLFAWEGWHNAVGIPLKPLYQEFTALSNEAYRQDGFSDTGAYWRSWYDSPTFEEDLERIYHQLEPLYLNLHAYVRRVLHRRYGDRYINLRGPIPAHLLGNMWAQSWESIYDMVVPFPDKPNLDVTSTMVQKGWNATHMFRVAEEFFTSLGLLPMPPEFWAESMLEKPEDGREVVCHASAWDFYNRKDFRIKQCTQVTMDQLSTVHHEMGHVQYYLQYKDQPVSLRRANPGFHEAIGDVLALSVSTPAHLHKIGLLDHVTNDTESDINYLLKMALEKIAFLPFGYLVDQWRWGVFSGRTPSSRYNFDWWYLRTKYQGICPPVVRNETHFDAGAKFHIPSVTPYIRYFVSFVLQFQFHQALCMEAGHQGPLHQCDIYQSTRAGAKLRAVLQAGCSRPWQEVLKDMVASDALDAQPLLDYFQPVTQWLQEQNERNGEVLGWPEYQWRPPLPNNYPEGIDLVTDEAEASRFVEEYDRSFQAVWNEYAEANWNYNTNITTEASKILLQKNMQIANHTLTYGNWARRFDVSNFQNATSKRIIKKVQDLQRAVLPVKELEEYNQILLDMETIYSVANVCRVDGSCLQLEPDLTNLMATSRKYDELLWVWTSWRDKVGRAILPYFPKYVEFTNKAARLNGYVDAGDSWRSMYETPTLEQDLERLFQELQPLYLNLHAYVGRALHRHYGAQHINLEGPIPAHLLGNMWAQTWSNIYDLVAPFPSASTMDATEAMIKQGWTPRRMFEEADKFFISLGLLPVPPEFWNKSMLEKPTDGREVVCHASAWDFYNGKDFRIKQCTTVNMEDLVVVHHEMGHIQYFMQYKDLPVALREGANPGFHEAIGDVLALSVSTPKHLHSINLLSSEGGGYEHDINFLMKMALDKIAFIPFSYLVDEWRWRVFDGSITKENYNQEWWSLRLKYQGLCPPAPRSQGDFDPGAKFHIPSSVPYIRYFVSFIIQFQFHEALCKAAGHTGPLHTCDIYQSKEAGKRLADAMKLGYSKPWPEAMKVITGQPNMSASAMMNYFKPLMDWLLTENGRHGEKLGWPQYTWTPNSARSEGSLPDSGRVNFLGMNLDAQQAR", "assay": "cell-based or functional assay"}, "[3]": {"conditions": "from Ulva intestinalis, ref [32]"}},
  "note": "Like-named read-outs stand apart in the source and are kept apart here.",
  "data": [
    {"molecule": "EIYR", "values": [
      {"measurement": "IC50", "setting": "[1]; from sea cucumber gonads, ref Zhong et al. (2018)", "result": 348, "unit": "µM"}
    ]},
    {"molecule": "FGMPLDR", "values": [
      {"measurement": "IC50", "setting": "[1]; [3]", "result": 219, "unit": "µM"}
    ]},
    {"molecule": "GMKCA", "values": [
      {"measurement": "ACE inhibition (in words)", "setting": "[1]; ref [9]", "result": "ACE inhibitory peptide"},
      {"measurement": "IC50", "setting": "[1]; ref [9]", "result": 45.7, "unit": "µM"}
    ]},
    {"molecule": "KNFL", "values": [
      {"measurement": "ACE inhibition (in words)", "setting": "[1]; from Undaria pinnatifida, ref [8]", "result": "ACE inhibitory peptide"}
    ]},
    {"molecule": "LLYQEPVLGPVR", "values": [
      {"measurement": "ACE inhibition (in words)", "setting": "[1]; from casein hydrolysate, ref [7]", "result": "potent ACE inhibitory peptide"}
    ]},
    {"molecule": "MELVLR", "values": [
      {"measurement": "IC50", "setting": "[1]; [3]", "result": 237, "unit": "µM"}
    ]},
    {"molecule": "TLRFALHGME [novel peptide from Takifugu flavidus hydrolysate]", "values": [
      {"measurement": "IC50", "setting": "[1]; from Takifugu flavidus hydrolysate, ref [17]", "result": 93.5, "unit": "µM"}
    ]},
    {"molecule": "THDWWKER", "values": [
      {"measurement": "IC50 of ACE inhibition (HHL substrate, HPLC)", "setting": "[2]", "result": 1290, "unit": "µM"}
    ]},
    {"molecule": "HDWWKER", "values": [
      {"measurement": "IC50 of ACE inhibition (HHL substrate, HPLC)", "setting": "[2]", "result": 584, "unit": "µM"}
    ]},
    {"molecule": "DDQYHIF", "values": [
      {"measurement": "IC50 of ACE inhibition (HHL substrate, HPLC)", "setting": "[2]", "result": 334, "unit": "µM"}
    ]}
  ]
}
